Results reported in patent US10980775B2, “Composition for prevention or treatment of cutaneous disorder” (XANTIAL, priority 2015, dated 2021).
“And” between values parts separate entries of the source, which are not always exact repeats. Equal entries are not always repeated.

Legend:
HMVEC/NHDF co-culture = experiment: Pseudotube formation (branching points) in VEGF-stimulated HMVEC/NHDF co-culture, in situ immunolabeling; format: cell-based, human; conditions: VEGF 100 ng/ml, 10 days; for Number of branching points, Mean: n=3; for Number of branching points: single replicate
Description: Analysis of pseudotube formation in a HMVEC/NHDF co-culture by in situ immunolabeling.
Human Microvascular Endothelial Cells (HMVEC) • Cell type: HMVEC, used at the 7th passage
HMVEC/NHDF Co-Culture • Cell type: HMVEC+NHDF (50:50 ratio) • Culture conditions: 37° C., 5% CO2 • Co-culture medium: Endothelial Cell Basal Medium 2 (EBM-2) supplemented with Fetal calf serum (FCS) 5%, rhEGF, rhFGF, R3 IGF-1, hydrocortisone, vitamin C and gentamycin +
DMEM supplemented with L-glutamine 2 mM, Penicillin 50 U/ml, Streptomycin 50 μg/ml FCS 10%.
The HMVEC and NHDF were seeded in 96-well plates and co-cultured in co-culture medium for 24 hours. The medium was then removed and replaced by co-culture medium containing or not (control) the test compounds, associations or the reference, suramine at 5 μM, in presence or not (non-stimulated control) of the inducer, VEGF at 100 ng/ml. The cells were incubated for 10 days with treatment renewal after 72 hours of incubation. All experimental conditions were performed in n=3.
After incubation, culture media were discarded and the cells were rinsed, fixed and permeabilized. The cells were then labeled using a primary antibody anti-Von Willebrand Factor.
The formation of pseudotubes was observed using a NIKON Diaphot 300 microscope (lens×4). The images were captured (1 photo per well) using a NIKON DS-Fi1 camera and NIS-Elements 3.10 software. Then the number of branching points within the pseudotube network was counted on each image.

[1] = tested on: collagen I expression in NHDF; experiment: Collagen I expression in NHDF stimulated with vitamin C+TGF-beta, in situ immunolabeling; format: cell-based, human; conditions: 50 μg/ml, 72 hours
Description: Analysis of collagen I expression in NHDF stimulated with vitamin C+TGF-beta by in situ immunolabeling. Activated HMVEC release TGF-beta which stimulates extracellular matrix synthesis by NHDF. TGF-beta stimulates the synthesis of collagen and vitamin C its release, creating experimental conditions close to TSC pathology conditions.
Normal Human Dermal Fibroblasts (NHDF) • Cell type: NHDF, used at the 8th passage • Culture conditions: 37° C., 5% CO2 • Culture medium: DMEM supplemented with L-glutamine 2 mM, Penicillin 50 U/ml—Streptomycin 50 μg/ml Fetal calf serum (FCS) 10% • Assay medium: DMEM supplemented with L-glutamine 2 mM, Penicillin 50 U/ml, Streptomycin 50 μg/ml FCS 1%. Culture and Treatment
The fibroblasts were seeded in 96-well plates and cultured in culture medium for 24 hours. The medium was then replaced with assay medium containing or not (control) the test compounds or associations in presence or not (non-stimulated control) of the association vitamin C+TGF-beta (20 μg/ml+10 ng/ml). The cells were incubated for 72 hours. All experimental conditions were performed in n=3.
After incubation, culture media were discarded and the cells were rinsed, fixed and permeabilized.
The acquisition of the images (5 photos per well) was performed using INCell Analyzer™ 1000 (GE Healthcare). Representative images for each experimental condition were included in the report.
The labeling was quantified by the measurement of the fluorescence intensity normalized to the total number of cells (Integration of numerical data with the Developer Toolbox 1.5, GE Healthcare software).

SMILES: Cc1ccc(C(=O)Nc2ccc(S(=O)(=O)O)c3cc(S(=O)(=O)O)cc(S(=O)(=O)O)c23)cc1NC(=O)c1cccc(NC(=O)Nc2cccc(C(=O)Nc3cc(C(=O)Nc4ccc(S(=O)(=O)O)c5cc(S(=O)(=O)O)cc(S(=O)(=O)O)c45)ccc3C)c2)c1 [Suramine, reference compound]
- % stimulated control (branching points) (HMVEC/NHDF co-culture; 5 μM): 63%
- Number of branching points, Mean (HMVEC/NHDF co-culture; 5 μM): 78
- Number of branching points (HMVEC/NHDF co-culture; 5 μM): 72 and 85 and 79
- inhibition at 5 µM (HMVEC/NHDF co-culture; Homo sapiens, 240 h, 5 μM): 37%

SMILES: COc1cc2c(cc1O)CCC(C)(C)O2 [Dimethylmethoxy chromanol]
- % stimulated control (branching points) (HMVEC/NHDF co-culture; 6 μg/ml): 79%
- Number of branching points, Mean (HMVEC/NHDF co-culture; 6 μg/ml): 98
- Number of branching points (HMVEC/NHDF co-culture; 6 μg/ml): 83 and 104 and 109
- inhibition at 6 µg/mL (HMVEC/NHDF co-culture; Homo sapiens, 240 h, 6 μg/ml): 21%
- Collagen I, Mean (basic data) ([1]; NHDF + vitamin C+TGF-beta (20 μg/ml+10 ng/ml), n=3): 274529
- Collagen I branching points (basic data) ([1]; NHDF + vitamin C+TGF-beta (20 μg/ml+10 ng/ml), single replicate): 250891 and 283414 and 289284
- % Stimulated control (collagen I) ([1]; NHDF + vitamin C+TGF-beta): 73%
- % inhibition (collagen I expression) ([1]; NHDF + vitamin C+TGF-beta): 71%

SMILES: Oc1ccc(/C=C/c2cc(O)cc(O)c2)cc1 [Resveratrol, 3,5,4′-trihydroxy-trans-stilbene]
- % stimulated control (branching points) (HMVEC/NHDF co-culture; 2 μg/ml): 113%
- Number of branching points, Mean (HMVEC/NHDF co-culture; 2 μg/ml): 141
- Number of branching points (HMVEC/NHDF co-culture; 2 μg/ml): 139 and 157 and 126
- inhibition at 2 µg/mL (HMVEC/NHDF co-culture; Homo sapiens, 240 h, 2 μg/ml): -13%
